This experiment deals with Caco-2 cells. In words: Cellular uptake study (flow cytometry, confocal microscopy). It is filed as cell-based, Human. The note with it: Caco-2 monolayer, 0.5 h incubation, 200 ng/mL coumarin-6 equivalent. As for the experimental part: Caco-2 cell monolayers approximately 21-24 days post seeding were used for the cellular uptake study. Before the experiments, the monolayers were washed with HBSS (pH 7.4) twice and then preincubated with HBSS at 37° C. for 30 min. The HBSS (control), free coumarin-6 solution (200 ng/mL), ERSNPs-C6 or PLGANPs-C6 suspension in HBSS equivalent to 200 ng/mL of coumarin-6 were added in the donor compartment while 3 mL of HBSS was added in the receiver compartment. These Caco-2 cell monolayers were incubated for 0.5 h and 1 h at 37° C. in an atmosphere of 5% CO2 and 90% relative humidity. The flow cytometry and confocal microscopy were used to assess the intracellular fluorescence. After 0.5 h and 1 h of incubation, the cell monolayers were washed with phosphate buffered saline (PBS, pH 7.4) three times following by trypsinization for 5 min (100 μL, 0.25% trypsin EDTA). Trypsinization was stopped by adding 1 mL of cold PBS. Cells were detached from the inserts by pipetting and centrifuged at 1000 rpm for 5 min The cells were resuspended in 2 mL PBS and analyzed by using fluorescent activated flow cytometry (BD FACS Calibur) and BD CellQuest software (BD Biosciences, NJ, USA). This experiment was performed in triplicate.
For confocal microscopic study, after 0.5 hours of incubation at 37° C., cell monolayer was washed with PBS three times. […]

As for `CCN(CC)c1ccc2cc(-c3nc4ccccc4s3)c(=O)oc2c1` [coumarin-6, Coumarin-6], the “cellular uptake efficiency (fluorescence intensity of cells)” value is on record as 1.27±0.3%.

The record behind these values is US20140093573A1, “NON-ENTERIC COATED PHARMACEUTICAL COMPOSITION AND USE THEREOF” (NATIONAL TAIWAN UNIVERSITY, priority 2012, published 2014).
